“And” between values parts separate entries of the source, which are not always exact repeats. Equal entries are not always repeated. Where two headings read alike, the source gives them in different places.
Biological target: nuclear factor-kappa B (NF-kB)-inducing kinase (NIK) (Homo sapiens (Human), UniProt Q99558)
Test: NIK Enzyme Inhibition Assay (Transcreener ADP fluorescence polarization)
Assay type: biochemical
Details: read-out: NIK ADP-FP (Ki uM)
Method: NIK Enzyme Inhibition Assay: The ability of the nuclear factor-kappa B (NF-kB)-inducing kinase (NIK) to catalyze the hydrolysis of adenosine-5′-triphosphate (ATP) was monitored using the Transcreener ADP (adenosine-5′-diphosphate) assay (BellBrook Labs). Purified NIK (0.2-1 nM) derived from a baculovirus-infected insect cell expression system was incubated with test compounds for 1-3.5 hours in 50 mM 2-[4-(2-hydroxyethyl)piperazin-1-yl]ethanesulfonic acid buffer (pH 7.2) containing 10 mM MgCl2, 2 mM dithiothreitol, 10 uM ATP, 0.01% Triton X-100, 0.1% gamma-globulins from bovine blood, 1% dimethylsulfoxide (DMSO), 12 ug/mL ADP antibody and 4 nM ADP-AlexaFluor® 633 tracer. Reactions were quenched by the addition of 20 mM 2,2′,2″,2′″-(ethane-1,2-diyldinitrilo)tetraacetic acid and 0.01% Brij 35. The tracer bound to the antibody was displaced by the ADP generated during the NIK reaction, which causes a decrease in fluorescence polarization that was measured by laser excitation at 633 nm with a Fluorescence Correlation Spectroscopy Plus reader (Evotec AG).

[1] = purified NIK 0.2-1 nM, 10 uM ATP, Morrison's quadratic equation

Sequence of nuclear factor-kappa B (NF-kB)-inducing kinase (NIK) (Q99558 whole entry): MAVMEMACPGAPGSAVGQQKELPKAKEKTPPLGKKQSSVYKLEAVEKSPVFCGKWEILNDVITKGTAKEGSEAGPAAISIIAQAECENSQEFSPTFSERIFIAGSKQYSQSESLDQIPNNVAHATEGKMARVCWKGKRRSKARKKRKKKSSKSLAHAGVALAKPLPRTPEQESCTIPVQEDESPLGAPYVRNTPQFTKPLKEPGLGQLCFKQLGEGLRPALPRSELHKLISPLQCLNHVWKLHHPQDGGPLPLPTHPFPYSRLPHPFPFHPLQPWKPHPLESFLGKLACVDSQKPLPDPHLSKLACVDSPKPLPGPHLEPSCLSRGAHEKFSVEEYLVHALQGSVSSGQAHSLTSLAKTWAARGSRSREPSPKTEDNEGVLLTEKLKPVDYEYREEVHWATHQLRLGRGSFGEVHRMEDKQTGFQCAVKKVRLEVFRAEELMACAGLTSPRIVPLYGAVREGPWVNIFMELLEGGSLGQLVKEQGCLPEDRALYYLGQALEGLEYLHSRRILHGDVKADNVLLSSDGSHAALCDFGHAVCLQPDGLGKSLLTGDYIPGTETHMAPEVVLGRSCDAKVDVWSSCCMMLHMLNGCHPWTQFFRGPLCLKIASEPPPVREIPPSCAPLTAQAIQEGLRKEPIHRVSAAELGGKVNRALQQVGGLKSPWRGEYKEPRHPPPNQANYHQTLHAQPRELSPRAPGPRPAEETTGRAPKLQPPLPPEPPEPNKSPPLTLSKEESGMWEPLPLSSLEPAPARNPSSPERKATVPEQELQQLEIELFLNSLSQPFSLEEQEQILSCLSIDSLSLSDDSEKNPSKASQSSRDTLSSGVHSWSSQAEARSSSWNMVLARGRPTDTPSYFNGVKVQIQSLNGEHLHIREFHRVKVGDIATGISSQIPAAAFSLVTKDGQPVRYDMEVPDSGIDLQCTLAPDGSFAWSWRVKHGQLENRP

Ki [1] | SMILES | Ki
0.028 µM | Cc1nnc(C(C)(O)C#Cc2ccc3c(c2)-c2nc(C(N)=O)cn2CCO3)o1 (stereo not drawn) | –
1.8 µM and 1.1 µM | CC(C)(O)C#Cc1ccc2c(c1)-c1nc(C(N)=O)c(CN3CC[C@@H](C#N)C3)n1CCO2 | –
0.003 µM | NC(=O)c1cn2c(n1)-c1cc(C#CC3(O)CCCC3)ccc1C1CC2C1 [Example 37, 9-[2-(1-hydroxycyclopentyl)ethynyl]-2,5-diazatetra-cyclo[11.1.1.0^2,6.0^7,12]pen-tadeca-3,5,7,9,11-pentaene-4-carboxamide] | –
0.011 µM | Cn1cncc1C(O)c1c(C(N)=O)nc2n1C1CC(C1)c1cc(F)c(C#CC(C)(C)O)cc1-2 (stereo not drawn) [listing 1 of 2 here] | –
0.0071 µM | CC(O)(C#Cc1ccc2c(c1)-c1nc(C(N)=O)cn1C1CC2C1)c1ccccn1 (stereo not drawn) | –
0.037 µM | CC(C)(O)C#Cc1cc2c(cc1F)OCCn1c-2nc(C(N)=O)c1C(=O)NC1CCOC1 (stereo not drawn) | –
0.00068 µM | CC(C)(O)C#Cc1cc2c(cc1F)C1CC(C1)c1[nH]c(C(N)=O)nc1-2 (racemic) | –
4.9 µM | CC(O)C(C)(O)C#Cc1cc2c(cc1F)OCCn1cc(C(N)=O)nc1-2 (stereo not drawn) | –
0.01 µM | NC(=O)c1cn2c(n1)-c1cc(C#CC3(O)CCC3)c(F)cc1OCC2 [Example 17, 8-fluoro-9-(1-hydroxy-cyclobutylethynyl)-4,5-dihydro-6-oxa-1,3a-diaza-benzo[e]azulene-2-carboxylic acid amide] | –
0.003 µM | CC(O)(C#Cc1cc2c(cc1F)OCCn1cc(C(N)=O)nc1-2)c1cc(CC#N)on1 (racemic) | –
0.009 µM | COCC(C)(O)C#Cc1cc2c(cc1F)OCCn1c-2nc(C(N)=O)c1-c1nc(C2CC2)n[nH]1 (stereo not drawn) [Example 213] | –
0.21 µM | CC(=O)N1CCN(Cc2c(C(N)=O)nc3n2CCOc2ccc(C#CC(C)(C)O)cc2-3)CC1 | –
> 5 µM | Cc1cc(C(C)(O)C#Cc2cc3c(cc2Cl)OCCn2cc(C(N)=O)nc2-3)no1 (racemic) | –
0.023 µM | CC(C)(O)C#Cc1ccc2c(c1)-c1nc(C(N)=O)sc1C(CC(N)=O)CO2 (racemic) [Example 49] | –
0.879 µM | CN1CCC(CNC(=O)c2c(C(N)=O)nc3n2CCOc2cc(F)c(C#CC(C)(C)O)cc2-3)C1 (racemic) [Example 68] | –
0.031 µM | Cn1cncc1C(O)c1c(C(N)=O)nc2n1C1CC(C1)c1cc(F)c(C#CC(C)(C)O)cc1-2 (stereo not drawn) [listing 2 of 2 here] | –
0.006 µM | CC(C)(O)C#Cc1cc2c(cc1F)OCCn1c-2nc(C(N)=O)c1C(=O)NC1COC1 (racemic) [Example 59] | –
0.003 µM | CNC(=O)c1c(C(N)=O)nc2n1CCOc1ccc(C#CC(C)(O)CO)cc1-2 (racemic) | –
0.19 µM | CC(C)(O)C#Cc1cc2c(cc1F)OCCn1c-2nc(C(N)=O)c1-c1nc(C2CC2)no1 (racemic) [Example 188] | –
0.037 µM | CC(C)(O)C#Cc1cc2c(cc1F)OCCn1c-2nc(C(N)=O)c1C1CC1 [Example 36, 3-cyclopropyl-8-fluoro-9-(3-hydroxy-3-methyl-but-1-ynyl)-4,5-dihydro-6-oxa-1,3a-diaza-benzo[e]azulene-2-carboxylic acid amide] | –
0.0097 µM | COCC(C)(O)C#Cc1ccc2c(c1)-c1nc(C(N)=O)cn1C1CC2C1 (stereo not drawn) | –
0.098 µM | CC(O)(C#Cc1cc2c(cc1F)OCCn1c-2nc(C(N)=O)c1C1CC1)CO (stereo not drawn) | –
0.502 µM | Cc1nc(-c2c(C(N)=O)nc3n2CCOc2cc(F)c(C#CC(C)(C)O)cc2-3)n(CC(F)(F)F)n1 | –
0.062 µM | Cc1cc([C@](C)(O)C#Cc2cc3c(cc2C)OCCn2cc(C(N)=O)nc2-3)no1 [Example 38, 9-[(R)-3-hydroxy-3-(5-methyl-isoxazol-3-yl)-but-1-ynyl]-8-methyl-4,5-dihydro-6-oxa-1,3a-diaza-benzo[e]azulene-2-car-boxylic acid amide] | –
0.95 µM | CN1CCN(Cc2c(C(N)=O)nc3n2CCOc2ccc(C#CC(C)(C)O)cc2-3)CC1 | –
0.0072 µM | CC(C)(O)C#Cc1cc2c(cc1F)OCCn1c-2nc(C(N)=O)c1C(O)c1cc(F)cc(F)c1 (racemic) [Example 161] | –
0.0072 µM | Cn1nccc1C(O)c1c(C(N)=O)nc2n1C1CC(C1)c1cc(F)c(C#CC(C)(C)O)cc1-2 (racemic) | –
0.172 µM | CC(C)(O)C#Cc1cc2c(cc1F)OCCn1c-2nc(C(N)=O)c1C#N [Example 33, 3-cyano-8-fluoro-9-(3-hydroxy-3-methyl-but-1-ynyl)-4,5-dihydro-6-oxa-1,3a-diaza-benzo[e]azulene-2-carboxylic acid amide] | –

The remaining lines, values behind:

SMILES | Ki [1] | Ki
Cc1cc([C@](C)(O)C#Cc2ccc3c(n2)-n2cc(C(N)=O)nc2CCO3)no1 (racemic) | 0.21 µM | –
CC(=O)N1CCN(Cc2c(C(N)=O)nc3n2C2CC(C2)c2cc(F)c(C#CC(C)(C)O)cc2-3)CC1 (racemic) | 0.026 µM | –
Cc1cc([C@](C)(O)C#Cc2ccc3c(c2)-c2nc(C(N)=O)c(C(=O)NCc4cccnc4)n2CCO3)no1 [Example 581, (R)-10-(3-hydroxy-3-(5-methylisoxazol-3-yl)but-1-yn-1-yl)-N3-(pyridin-3-ylmeth-yl)-5,6-dihydrobenzo[f]imidazo[1,2-d][1,4]oxazepine-2,3-dicarboxamide] | 0.001 µM | –
CC(C)(O)C#Cc1cc2c(cc1F)OCCn1c-2nc(C(N)=O)c1Cc1ccccc1 [Example 24, 3-benzyl-8-fluoro-9-(3-hydroxy-3-meth-yl-but-1-ynyl)-4,5-dihydro-6-oxa-1,3a-diaza-benzo[e]azulene-2-carboxylic acid amide] | 0.011 µM | –
Cn1cc(C(O)c2c(C(N)=O)nc3n2CCOc2cc(F)c(C#CC(C)(C)O)cc2-3)cn1 (stereo not drawn) | 0.082 µM | –
CC(O)(C#Cc1cc2c(cc1F)OCCc1sc(C(N)=O)nc1-2)CF (stereo not drawn) [Example 117, 8-fluoro-9-(4-fluoro-3-hydroxy-3-meth-yl-but-1-ynyl)-4,5-dihydro-6-oxa-3-thia-1-aza-benzo[e]azulene-2-carboxylic acid amide] | 0.005 µM | –
CC(C)(O)C#Cc1cc2c(cc1F)C1CC(C1)n1c-2nc(C(N)=O)c1Cc1ccccc1Cl (racemic) | 0.0021 µM | –
CN1CC[C@@](O)(C#Cc2cc3c(cc2F)OCC(F)(F)c2sc(C(N)=O)nc2-3)C1=O [Example 641, 4,4,8-trifluoro-9-[2-[(3R)-3-hydroxy-1-methyl-2-oxo-pyrrolidin-3-yl]ethynyl]-5H-[1]benzoxepino[5,4-d]thiazole-2-carboxamide] | 0.0002 µM | –
Cc1cc([C@](C)(O)C#Cc2ccc3c(c2)-c2nc(C(N)=O)cn2CC(CN2CCOCC2)O3)no1 (stereo partly drawn) [Example 597, 10-((R)-3-hydroxy-3-(5-methylisoxazol-3-yl)but-1-yn-1-yl)-6-(morpholinometh-yl)-5,6-dihydrobenzo[f]imidazo[1,2-d][1,4]oxazepine-2-carboxamide] | 0.28 µM | –
NC(=O)c1cn2c(n1)-c1cc(C#CC3(O)CCNC3)ccc1OCC2 (stereo not drawn) [Example 29, 9-(3-hydroxy-pyrrolidin-3-ylethynyl)-4,5-dihydro-6-oxa-1,3a-diaza-benzo[e]azu-lene-2-carboxylic acid amide] | > 5 µM | –
COCCNCc1c(C(N)=O)nc2n1C1CC(C1)c1cc(F)c(C#CC(C)(C)O)cc1-2 (racemic) | 0.056 µM | –
CN1CC[C@@](O)(C#Cc2ccc3c(c2)-c2nc(C(N)=O)c(COc4ccccc4Cl)n2CCO3)C1=O | – | 0.004 µM
Cn1nccc1Cc1c(C(N)=O)nc2n1C1CC(C1)c1cc(F)c(C#CC(C)(C)O)cc1-2 | 0.0024 µM | –
CC(O)(C#Cc1cc2c(cc1F)OCCn1cc(C(N)=O)nc1-2)c1ncccc1F (stereo not drawn) [Example 252] | 0.025 µM | –
CC12CCC(O)(C#Cc3ccc4c(c3)-c3nc(C(N)=O)cn3CCO4)C1O2 (stereo not drawn) [Example 428] | > 1.2 µM | –
CC(O)(C#Cc1cc2c(cc1F)C1CC(C1)n1cc(C(N)=O)nc1-2)c1ccccn1 (racemic) [Example 160] | 0.0068 µM | –
CC(O)(C#Cc1cc2c(cc1F)OCCn1cc(C(N)=O)nc1-2)c1c[nH]cn1 (stereo not drawn) | 0.001 µM | –
CN1CCCC(O)(C#Cc2ccc3c(c2)-c2nc(C(N)=O)sc2CCO3)C1=O (stereo not drawn) | 0.0029 µM | –
CN1CC[C@@](O)(C#Cc2ccc3c(c2)-c2nc(C(N)=O)sc2C2CC3C2)C1=O [Example 609, (R)-9-((3-hydroxy-1-methyl-2-oxopyrro-lidin-3-yl)ethynyl)-5,6-dihydro-4H-4,6-methanobenzo[6,7]cyclohepta[1,2-d]thiazole-2-carboxamide] | 0.00094 µM | –
CN1CC[C@@](O)(C#Cc2ccc3c(c2)-n2nc(C(N)=O)c(C(F)F)c2CCO3)C1=O [Example 718, (R)-3-(difluoromethyl)-9-((3-hydroxy-1-methyl-2-oxopyrrolidin-3-yl)ethynyl)-4,5-dihydrobenzo[b]pyrazolo[1,5-d][1,4]oxazepine-2-carboxamide] | 0.0003 µM | –
CNC(=O)c1c(C(N)=O)nc2n1CCOc1ccc(C#CC3(O)CCCCC3)cc1-2 | 0.0057 µM | –
CC(O)(C#Cc1cc2c(cc1F)OCCn1c-2nc(C(N)=O)c1C1CC1)c1ccccn1 (stereo not drawn) | 0.037 µM | –
CC(O)(C#Cc1cc2c(cc1F)OCCn1cc(C(N)=O)nc1-2)c1cncnc1 (stereo not drawn) [Example 14, 8-Fluoro-9-(3-hydroxy-3-pyrimidin-5-yl-but-1-ynyl)-4,5-dihydro-6-oxa-1,3a-diaza-benzo[e]azulene-2-carboxylic acid amide] | 0.864 µM | –
CN(C)Cc1c(C(N)=O)nc2n1C1CC(C1)c1cc(F)c(C#CC(C)(C)O)cc1-2 (racemic) | 0.6 µM | –
CC(O)(C#Cc1cc2c(cc1F)OCCn1cc(C(N)=O)nc1-2)C(N)=O (stereo not drawn) [Example 52, 9-(3-carbamoyl-3-hydroxy-but-1-ynyl)-8-fluoro-4,5-dihydro-6-oxa-1,3a-diaza-benzo[e]azulene-2-carboxylic acid amide] | 3.6 µM | –
CNC(=O)c1c(C(N)=O)nc2n1CCOc1cc(F)c(C#CC(C)(O)CO)cc1-2 (racemic) | 0.002 µM | –
